Experimental data reported in PMC12424289, “Programmable Nanostructure Assembly of a Paclitaxel Derivative Enables Tunable Anticancer Therapy via Hydrogen Bond Engineering” (ACS Nano, 2025).

Assays:
[1] = test system: mouse breast 4T1 cells; experiment: CCK8 antiproliferation assay, 4T1; assay type: cell-based; settings: 4T1, 48 h treatment
Protocol: The mouse breast cancer cell line 4T1 and the human ovarian cancer cell line SKOV3 were cultured in RPMI 1640 medium supplemented with 10% fetal bovine serum, 100 units·mL^–1 penicillin, and 100 μg·mL^–1 streptomycin. The human lung cancer cell line A549 and the luciferase-expressing human colorectal carcinoma cell line HCT116-Luc were cultured in high-glucose DMEM medium supplemented with 10% fetal bovine serum, 100 units·mL^–1 penicillin, and 100 μg·mL^–1 streptomycin. All cell lines were maintained at 37 °C in a Steri-Cycle 371 incubator (Thermo Scientific, USA) with a humidified atmosphere of 5% CO2. Only cells between passages 5 and 15 were used for cell-based experiments.
The antiproliferative activity of PTP was evaluated using the Cell Counting Kit-8 (CCK8) assay. PTX solution served as a positive control. Cell suspensions were prepared at a density of 3 × 10^4 cells·mL^–1 and seeded in 96-well plates at a volume of 100 μL per well. The plates were incubated for 24 h to allow cell attachment and growth. Subsequently, the culture media were replaced with fresh media containing varying concentrations of PTX or PTP solutions (100 μL per well), and the cells were incubated for an additional 48 h (n = 3). Control wells received fresh culture media alone (n = 3). […] Finally, the absorbance was measured at 450 nm using a microplate reader (Synergy H1, BioTek, USA). […]

[2] = test system: tubulin; experiment: Isothermal titration calorimetry with tubulin; assay type: binding; settings: tubulin 180 μM titrated into 25 μM compound
Protocol: ITC experiments were performed using a Nano-ITC (TA Instruments, USA) with all samples degassed for 8 min prior to measurement. Experiments were conducted under stirring at 350 rpm. To account for background signals, control experiments were conducted and subtracted from the test data. The resulting heat values were analyzed using an independent model to extract thermodynamic parameters. For tubulin binding studies, solutions were prepared in PEM buffer containing 5% (v/v) DMSO. In each experiment, 400 μL of the […] was loaded into the sample cell, and 400 μL of PEM buffer with 5% (v/v) DMSO was placed in the reference cell. Tubulin solution (180 μM) was titrated into the sample cell in 25 injections of 2 μL each at 4 °C. A control titration of tubulin into PEM buffer (5% DMSO) was performed to account for dilution effects. To assess interactions between PTP and excipients, PTP dispersions (25 μM) were loaded into the sample cell, and water was used in the reference cell. PEG400 solution (6.0 mg·mL^–1) was titrated into a 2.0 mg·mL^–1 PTP dispersion, and HA (2.7 mg·mL^–1) into a 1.0 mg·mL^–1 PTP dispersion. Both titrations were performed at 25 °C with 25 injections of 2 μL each. Control experiments were performed by titrating PEG400 or HA into water to correct for nonspecific heat effects.

[3] = Biodistribution in 4T1 tumor-bearing mice; assay type: in vivo, Balb/c mice; settings: iv 10.0 mg·kg^–1
Protocol: For plasma samples, 50 μL of plasma was mixed with 100 μL of a docetaxel acetonitrile solution (15 ng·mL^–1) for protein precipitation. The mixture was vortexed and then centrifuged at 4 °C, 17 000 rpm for 30 min. For tissue samples, mice were euthanized at specified time points, and tissues were harvested and rinsed with saline. Two kidneys, the entire heart, spleen, lung, tumor, and 150–200 mg of liver were placed in grinding tubes. Saline was added at a ratio of 1:5 (m/v), and the tissues were ground using a freezing grinder (Jingxin, China) at 4 °C. Next, 100 μL of docetaxel acetonitrile solution (15 ng·mL^–1) was added to 50 μL of the tissue homogenate. […] The supernatants for both plasma and tissue samples were analyzed by LC-MS as described below.
The concentrations of PTP and PTX in plasma and tissue samples were determined using liquid chromatography–mass spectrometry (LC-MS) with a G6470A system (Agilent, USA) equipped with a C18 column (2.1 × 100 mm, 2.7 μm, Agilent, USA). […]
Pharmacokinetic features were evaluated in Sprague–Dawley rats (200–300 g, n = 6 per group) following a single intravenous administration of PTX solution (1.0 mg·mL^–1), PTP (1.2 mg·mL^–1), or PTP@PEG (1.2 mg·mL^–1) at a dose equivalent to 3.0 mg·kg^–1 PTX. […] Biodistribution was assessed in female Balb/c mice (18–22 g; n = 6 per group) bearing subcutaneous 4T1 tumors (target volume 200–300 mm^3). […]

## CC(=O)O[C@H]1C(=O)[C@@]2(C)[C@H]([C@H](OC(=O)c3ccccc3)[C@]3(O)C[C@H](OC(=O)[C@H](OC(=O)CCP(=O)(O)O)[C@@H](NC(=O)c4ccccc4)c4ccccc4)C(C)=C1C3(C)C)[C@]1(OC(C)=O)CO[C@@H]1C[C@@H]2O [PTP, PTX-2’–OOC-P]
[1]
  IC50: 0.0824 µM
[2]; ITC
  molar ratio of tubulin to compound: 1.6
[2]; 5% DMSO, 4 °C
  Gibbs free energy change (ΔG): −26.8 kJ·mol^–1
[3]
  biodistribution, organs of accumulation: primarily accumulated in the liver and kidney
